# Results as given in patent US11230556B2 (Merck Sharp & Dohme Corp., priority 2016, dated 2022).
# Biological target: T1, human M4 muscarinic acetylcholine receptor (Homo sapiens, UniProt P08173)
# T1 construct: expressed in transfected cells; host or cells: CHO-K1
# T1 sequence (P08173 1-479): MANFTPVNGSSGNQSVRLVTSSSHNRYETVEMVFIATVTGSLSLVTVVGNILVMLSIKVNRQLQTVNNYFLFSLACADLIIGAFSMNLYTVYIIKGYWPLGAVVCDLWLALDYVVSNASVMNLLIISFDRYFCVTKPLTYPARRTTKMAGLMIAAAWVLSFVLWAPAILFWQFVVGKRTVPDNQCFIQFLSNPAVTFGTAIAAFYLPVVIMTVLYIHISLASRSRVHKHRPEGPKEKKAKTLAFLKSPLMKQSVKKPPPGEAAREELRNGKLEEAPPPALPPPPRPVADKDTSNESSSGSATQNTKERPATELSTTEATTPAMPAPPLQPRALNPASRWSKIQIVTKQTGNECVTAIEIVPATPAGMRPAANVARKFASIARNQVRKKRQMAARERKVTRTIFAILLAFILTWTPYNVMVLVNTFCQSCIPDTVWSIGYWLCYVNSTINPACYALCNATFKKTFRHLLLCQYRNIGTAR
# Test: human FLIPR-based M4 PAM assay (CHO-K1 cells with human M4 receptor and Gαqi5, calcium dye fluorescence, acetylcholine at 20% of maximum response)
# Type: cell-based
# Conditions: inflection point (IP) of 4 parameter logistic dose response curve, human M4 receptor + Gαqi5, FLIPR Tetra
# Protocol: In a typical experiment the M4 muscarinic acetylcholine receptor modulating activity of the compounds of the present invention was determined in accordance with the following experimental method. CHO-K1 cells stably transfected with human M4 receptor and chimeric G-protein Gαqi5 (Coward P, et al., Analytical Biochemistry, 270:242-248 (1999)) are thawed from liquid N2 storage, resuspended in growth medium, plated in black, clear bottom 384 well plates, and incubated 16-20 hours at 37° C., 5% CO2. On the day of assay, growth medium is removed, the cells are washed 2 times with wash buffer, and cells are incubated in dye loading buffer at 37° C., 5% CO2 for ˜1 hour. Following dye loading the cell plates are placed in a FLIPR Tetra instrument and while monitoring dye fluorescence (excitation […]), 10 uL of test substance at increasing concentrations is added, and fluorescence values are recorded for 4 min. Next, 10 uL of acetylcholine is added (final concentration calculated so as to achieve 20% of the maximum acetycholine response), and the fluorescence reading is continued for 3.5 min. In some cases, a third addition of acetylcholine (final concentration calculated to achieve 70% of the maximal acetylcholine response) is performed. The resulting dose response curves are fit to a 4 parameter logistic equation and the final result is determined as the inflection point (IP) of the curve
# CHO-K1 cells stably transfected with human M4 receptor and chimeric G-protein Gαqi5 are thawed from liquid N2 storage, resuspended in growth medium, plated in black, clear bottom 384 well plates, and incubated 16-20 hours at 37° C., 5% CO2.
# On the day of assay, growth medium is removed, the cells are washed 2 times with wash buffer, and cells are incubated in dye loading buffer at 37° C., 5% CO2 for ˜1 h. Following dye loading the cell plates are placed in a FLIPR Tetra instrument and while monitoring dye fluorescence ([…]), 10 uL of test substance at increasing concentrations is added, and fluorescence values are recorded for 4 min. Next, 10 uL of acetylcholine is added (final concentration calculated so as to achieve 20% of the maximum acetycholine response), and the fluorescence reading is continued for 3.5 min. In some cases, a third addition of acetylcholine (final concentration calculated to achieve 70% of the maximal acetylcholine response) is performed.
row,Compound,EC50 [nM]
1,"COc1ccc(OC2CCN(c3nc4c(cc3C)CN(S(=O)(=O)C3CC3)C4)CC2)cn1 [Example 58, 6-(Cyclopropylsulfonyl)-2-(4-((6-methoxypyridin-3-yl)oxy)piperidin-1-yl)-3-methyl-6,7-dihydro-5H-pyrrolo[3,4-b]pyridine]",168
2,"COC(=O)N1Cc2cc(C)c(N3CCC(Oc4ccc(OC)nc4)CC3)nc2C1 [Example 61, methyl 2-(4-((6-methoxypyridin-3-yl)oxy)piperidin-1-yl)-3-methyl-5,7-dihydro-6H-pyrrolo[3,4-b]pyridine-6-carboxylate]",156
3,"COc1ccc(OC2CCN(c3nc4c(cc3C)CN(C(=O)C3CC(F)(F)C3)C4)CC2)cn1 [Example 49, (3,3-difluorocyclobutyl)(2-(4-((6-methoxypyridin-3-yl)oxy)piperidin-1-yl)-3-methyl-5,7-dihydro-6H-pyrrolo[3,4-b]pyridin-6-yl)methanone]",126
4,"COc1ccc(OC2CCN(c3nc4c(cc3C)CN(Cc3ccncc3)C4=O)CC2)cn1 [Example 36, 2-(4-((6-Methoxypyridin-3-yl)oxy)piperidin-1-yl)-3-methyl-6-(pyridin-4-ylmethyl)-5,6-dihydro-7H-pyrrolo[3,4-b]pyridin-7-one]",672
5,"CCOC(=O)N1Cc2cc(C)c(N3CCC(Oc4ccc(OC)nc4)CC3)nc2C1 [Example 43, ethyl 2-(4-((6-methoxypyridin-3-yl)oxy)piperidin-1-yl)-3-methyl-5,7-dihydro-6H-pyrrolo[3,4-b]pyridine-6-carboxylate]",157
6,"COc1ccc(OC2CCN(c3nc4c(cc3C)CN(C(=O)C3CN(C)C3)C4)CC2)cn1 [Example 52, (2-(4-((6-methoxypyridin-3-yl)oxy)piperidin-1-yl)-3-methyl-5,7-dihydro-6H-pyrrolo[3,4-b]pyridin-6-yl)(1-methylazetidin-3-yl)methanone]",453
7,"COc1ccc(OC2CCN(c3nc4c(cc3C)CN(C(=O)C3(C)COC3)C4)CC2)cn1 [Example 42, (2-(4-((6-methoxypyridin-3-yl)oxy)piperidin-1-yl)-3-methyl-5,7-dihydro-6H-pyrrolo[3,4-b]pyridin-6-yl)(3-methyloxetan-3-yl)methanone]",200
8,"Cc1cc2c(nc1N1CCC(Oc3ccccc3)CC1)CNS2(=O)=O [Example 77, 6-methyl-5-(4-phenoxypiperidin-1-yl)-2,3-dihydroisothiazolo[4,5-b]pyridine 1,1-dioxide]",275
9,"Cc1cn2c(=O)[nH]nc2nc1N1CC[C@@H](Oc2ccc3c(cnn3C)c2)[C@H](F)C1 [Example 7, 7-((3R,4R)-3-fluoro-4-((1-methyl-1H-indazol-5-yl)oxy)piperidin-1-yl)-6-methyl-[1,2,4]triazolo[4,3-a]pyrimidin-3(2H)-one]",138
10,"COc1ccc(OC2CCN(c3nc4c(cc3C)C(=O)OC4(C)C)CC2)cn1 [Example 30, 2-(4-((6-methoxypyridin-3-yl)oxy)piperidin-1-yl)-3,7,7-trimethylfuro[3,4-b]pyridin-5(7H)-one]",856
11,"COc1ccc(OC2CCN(c3nc4c(cc3C)CN(C(C)=O)C4)CC2)cn1 [Example 40, 1-(2-(4-((6-methoxypyridin-3-yl)oxy)piperidin-1-yl)-3-methyl-5,7-dihydro-6H-pyrrolo[3,4-b]pyridin-6-yl)ethan-1-one]",162
12,"COc1ccc(OC2CCN(c3nc4c(cc3C)COC4=O)CC2)cn1 [Example 20, 2-(4-((6-Methoxypyridin-3-yl)oxy)piperidin-1-yl)-3-methylfuro[3,4-b]pyridin-7(5H)-one]",151
13,"COc1ccc(OC2CCN(c3nc4c(cc3C)C(O)CC4)CC2)cn1 (single isomer, unassigned) [Example 71B]",1050
14,"COc1ccc(OC2CCN(c3nc4c(cc3C)CN(S(C)(=O)=O)C4)CC2)cn1 [Example 59, 2-(4-((6-methoxypyridin-3-yl)oxy)piperidin-1-yl)-3-methyl-6-(methylsulfonyl)-6,7-dihydro-5H-pyrrolo[3,4-b]pyridine]",125
15,"COc1ccc(OC2CCN(c3nc4c(cc3C)CCC4)CC2)cn1 [Example 72, 2-(4-((6-Methoxypyridin-3-yl)oxy)piperidin-1-yl)-3-methyl-6,7-dihydro-5H-cyclopenta[b]pyridine]",1510

# These reach a lower EC50. Values come first.
row,EC50 [nM],Compound
1,119,"COc1ccc(OC2CCN(c3nc4c(cc3C)C(=O)C(C)C4)CC2)cn1 (centres unmarked) [Example 74, 2-(4-((6-Methoxypyridin-3-yl)oxy)piperidin-1-yl)-3,6-dimethyl-6,7-dihydro-5H-cyclopenta[b]pyridin-5-one]"
2,114,"COC(=O)N1Cc2cc(C)c(N3CCC(Oc4ccccc4)CC3)nc2C1 [Example 62, methyl 3-methyl-2-(4-phenoxypiperidin-1-yl)-5,7-dihydro-6H-pyrrolo[3,4-b]pyridine-6-carboxylate]"
3,103,"Cc1cc2c(nc1N1CCC(Oc3ccc4c(c3)COC4)CC1)C1CNCCN1C2=O (single isomer, unassigned) [Example 83A]"
4,92,"COc1ccc(OC2CCN(c3nc4c(cc3C)C(=O)N3CCOCC43)CC2)cn1 (centres unmarked) [Example 82, 2-(4-((6-methoxypyridin-3-yl)oxy)piperidin-1-yl)-3-methyl-7,8,10,10a-tetrahydro-5H-pyrido[2′,3′:3,4]pyrrolo[2,1-c][1,4]oxazin-5-one]"
5,87,"COc1ccc(OC2CCN(c3nc4nn(C)c(=O)n4cc3C)CC2)cn1 [Example 11, 7-(4-((6-methoxypyridin-3-yl)oxy)piperidin-1-yl)-2,6-dimethyl-[1,2,4]triazolo[4,3-a]pyrimidin-3(2H)-one]"
6,77,"COc1ccc(OC2CCN(c3nc4c(cc3C)CN(C(=O)CCO)C4)CC2)cn1 [Example 39, 3-Hydroxy-1-(2-(4-((6-methoxypyridin-3-yl)oxy)piperidin-1-yl)-3-methyl-5,7-dihydro-6H-pyrrolo[3,4-b]pyridin-6-yl)propan-1-one]"
7,55,"Cc1cn2c(=O)[nH]nc2nc1N1CCC(Oc2ccccc2)CC1 [Example 15, 6-Methyl-7-(4-phenoxypiperidine-1-yl)-[1.2.4]triazolo[4,3-a]pyrimidin-3(2H)-one]"
8,54,"COc1ccc(OC2CCN(c3nc4c(cc3C)C(=O)OC4C)CC2)cn1 (racemic) [Example 29B, (R)-2-(4-((6-Methoxypyridin-3-yl)oxy)piperidin-1-yl)-3,7-dimethylfuro[3,4-b]pyridin-5(7H)-one and (S)-2-(4-((6-methoxypyridin-3-yl)oxy)piperidin-1-yl)-3,7-dimethylfuro[3,4-b]pyridin-5(7H)-one]"
9,39,"Cc1cc2c(=O)[nH][nH]c2nc1N1CCC(Oc2ccc3cn[nH]c3c2)CC1 [Example 24, 6-(4-((1H-indazol-6-yl)oxy)piperidin-1-yl)-5-methyl-1,2-dihydro-3H-pyrazolo[3,4-b]pyridin-3-one]"
10,20,"Cc1cc2c(nc1N1CCC(Oc3ccccc3)CC1)CN(S(C)(=O)=O)C2 [Example 60, 3-methyl-6-(methylsulfonyl)-2-(4-phenoxypiperidin-1-yl)-6,7-dihydro-5H-pyrrolo[3,4-b]pyridine]"
11,20,"Cc1cn2c(=O)[nH]nc2nc1N1CCC(Oc2ccc3c(c2)COC3)CC1 [Example 2, 7-(4-((1,3-Dihydro-2-benzofuran-5-yl)oxy)piperidin-1-yl)-6-methyl-[1,2,4]triazolo[4,3-a]pyrimidin-3(2H)-one]"
